What was measured:
Test in all cases: MTT assay
Type in all cases: cell-based, human
HEK-293 = test system: HEK-293
Procedure: (§1) Human cancer cell lines (MDA-MB-231, LNCaP, Caco-2) and a human healthy cell line (HEK-293) were obtained from the European Collection of Cell Cultures. The cells were incubated in a humidified incubator (37 °C, 5% CO2) and cultured under standard conditions in Dulbecco’s modified Eagle medium (DMEM), 10% heat-inactivated fetal bovine serum, 100 U mL^–1 penicillin, 100 U mL^–1 streptomycin, and 4 mM L-glutamine. […] A cell culture medium was used to make further dilutions, while keeping the equivalent of DMF below 0.5% of the total volume.[94] […]
(§2) 7. Cell Viability Inhibition Assay
(§3) MDA-MB-231, LNCaP, Caco-2 and HEK-293 cells (5x10^3 per well) seeded in 96-well plates to assess cell viability by the 3-[4,5-dimethylthiazol-2-yl]-2,5-diphenyltetrazolium bromide (MTT) assay for 24 h at 37°C. Then cells were treated with compound 3 at different concentrations (3-100 µM) at 100μl/well. In parallel, the traditional anticancer agent cisplatin and etoposid was used as positive controls under identical conditions. After 24, 48 and 72 h incubation, 5 mg/ml MTT solution (20 μl/well) was added and cultured for another 4 h. Then, the supernatant was discarded and dimethyl sulfoxide was added (100 μl/well). The absorbance (A) was measured spectrophotometrically at 540 nm by a Microplate Reader (SpectraMax i3x).
(§4) A graph was plotted between the concentrations of the extract versus the percent viability. The […]
(§5) calculated from graph. All assays were performed in three replicates per concentration level. 11 […]

LNCaP = conditions: for IC50: LNCaP
Procedure: as §1, §2, §3, §4, §5

MDA-MB-231 = test system: MDA-MB-231
Procedure: as §1, §2, §3, §4, §5

Caco-2 = conditions: for IC50: Homo sapiens
Procedure: as §1, §2
MDA-MB-231, LNCaP, Caco-2 and HEK-293 cells (5x10^3 per well) seeded in 96-well plates to assess cell viability by the 3-[4,5-dimethylthiazol-2-yl]-2,5-diphenyltetrazolium bromide (MTT) assay for 24 h at 37°C. Then cells were treated with compound 3 at different concentrations (3-100 µM) at 100μl/well. […]
and etoposid was used as positive controls under identical conditions. After 24, 48 and 72 h incubation, 5 mg/ml MTT solution (20 μl/well) was added and cultured for another 4 h. Then, the supernatant was discarded and dimethyl sulfoxide was added (100 μl/well). The absorbance (A) was measured spectrophotometrically at 540 nm by a Microplate Reader (SpectraMax i3x).
as §4, §5

[1] = 48 h, SI = IC50 on normal cells/IC50 on cancer cells

With N.N.[Cl][Pt][Cl] [cisplatin] the IC50 (HEK-293; HEK-293, 24 h) was 18.62 ± 0.09 µM, the IC50 (HEK-293; HEK-293, 48 h) was 4.7 ± 0.01 µM and the IC50 (HEK-293; HEK-293, 72 h) was 2.43 ± 0.01 µM. For the same compound, the IC50 (LNCaP; 24 h) was 26.1 ± 0.58 µM, the IC50 (LNCaP; 48 h) was 25.9 ± 0.48 µM and the IC50 (LNCaP; 72 h) was 10.3 ± 0.28 µM. For the same compound, the IC50 (MDA-MB-231; MDA-MB-231, 24 h) was 8.43 ± 0.01 µM, the IC50 (MDA-MB-231; MDA-MB-231, 48 h) was 2.19 ± 0.02 µM and the IC50 (MDA-MB-231; MDA-MB-231, 72 h) was 1.78 ± 0.01 µM.
COc1cc([C@@H]2c3cc4c(cc3[C@@H](O[C@@H]3O[C@@H]5CO[C@@H](C)O[C@H]5[C@H](O)[C@H]3O)[C@H]3COC(=O)[C@H]23)OCO4)cc(OC)c1O [etoposide] was tested, and the IC50 (HEK-293; Homo sapiens, HEK293, HEK-293, 24 h) was 110.3 ± 0.16 µM, the IC50 (HEK-293; Homo sapiens, HEK293, HEK-293, 48 h) was 59.2 ± 0.32 µM and the IC50 (HEK-293; Homo sapiens, HEK293, HEK-293, 72 h) was 51.62 ± 0.48 µM. The SI HEK-293/LNCap (LNCaP; [1]) was 0.95, the IC50 (LNCaP; Homo sapiens, 24 h) was 81.47 ± 0.62 µM and the IC50 (LNCaP; Homo sapiens, 48 h) was 62.02 ± 0.61 µM. For the same compound, the IC50 (LNCaP; Homo sapiens, 72 h) was 20.79 ± 0.08 µM, the SI HEK-293/MDA-MB-231 (MDA-MB-231; [1]) was 0.94 and the IC50 (MDA-MB-231; Homo sapiens, MDA-MB-231, 24 h) was 85.4 ± 0.74 µM. It also gave an IC50 (MDA-MB-231; Homo sapiens, MDA-MB-231, 48 h) of 63.17 ± 0.05 µM, an IC50 (MDA-MB-231; Homo sapiens, MDA-MB-231, 72 h) of 24.3 ± 0.44 µM and an SI HEK-293/Caco-2 (Caco-2; [1]) of 1.1. The IC50 (Caco-2; Caco-2, 24 h) was 76.27 ± 0.34 µM, the IC50 (Caco-2; Caco-2, 48 h) was 53.81 ± 0.17 µM and the IC50 (Caco-2; Caco-2, 72 h) was 17.5 ± 0.26 µM.
